{"source": "PubChem BioAssay AID330", "about": "(DTP/NCI, 2004)", "system": "P388 leukemia ip, CD2F1 mice, survival T/C", "assay": "NCI In Vivo Anticancer Drug Screen. Data for tumor model P388 Leukemia (intraperitoneal) in CD2F1 (CDF1) mice", "conditions": "endpoint: median survival time, higher = longer survival", "outline": "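Mice carrying the transplanted tumor received test compound or vehicle. Survival was recorded in each group, and the value is the treated-group measurement divided by that of the vehicle-treated control group.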", "key": {"[1]": {"conditions": "dose: 50.0 mg/kg/injection, schedule: Q01DX009 (ip), vehicle: saline with Tween-80"}, "[2]": {"conditions": "dose: 50.0 mg/kg/injection, schedule: Q01DX009 (ip), vehicle: saline"}, "[3]": {"conditions": "dose: 100.0 mg/kg/injection, schedule: Q01DX009 (ip), vehicle: saline with Tween-80"}, "[4]": {"conditions": "dose: 100.0 mg/kg/injection, schedule: Q01DX009 (ip), vehicle: saline"}, "[5]": {"conditions": "dose: 200.0 mg/kg/injection, schedule: Q01DX009 (ip), vehicle: saline with Tween-80"}, "[6]": {"conditions": "dose: 200.0 mg/kg/injection, schedule: Q01DX009 (ip), vehicle: saline"}, "[7]": {"conditions": "dose: 50.0 mg/kg/injection, schedule: Q01DX005 (ip), vehicle: saline with Tween-80"}, "[8]": {"conditions": "dose: 100.0 mg/kg/injection, schedule: Q04DX002 (ip), vehicle: saline with Tween-80"}, "[9]": {"conditions": "dose: 100.0 mg/kg/injection, schedule: Q01DX001 (ip), vehicle: Klucel (hydroxypropylcellulose) (HPC)"}, "[10]": {"conditions": "dose: 200.0 mg/kg/injection, schedule: Q01DX001 (ip), vehicle: Klucel (hydroxypropylcellulose) (HPC)"}, "[11]": {"conditions": "dose: 400.0 mg/kg/injection, schedule: Q01DX001 (ip), vehicle: Klucel (hydroxypropylcellulose) (HPC)"}, "[12]": {"conditions": "dose: 25.0 mg/kg/injection, schedule: Q01DX009 (ip), vehicle: saline with Tween-80"}}, "note": "Where “and” joins values, the source holds several entries; their conditions need not be identical. Identical values can stand only once. Inconclusive results and toxic doses are left out."}
{"smiles": "CCOC(=O)/C(=C/Nc1ccc(OCc2ccccc2)cc1)NC(=O)c1ccccc1", "values": [{"measurement": "T/C", "setting": "[1]", "value": "87 % of control"}, {"measurement": "T/C", "setting": "[2]", "value": "86 % of control"}, {"measurement": "T/C", "setting": "[3]", "value": "86 % of control"}, {"measurement": "T/C", "setting": "[4]", "value": "86 % of control"}, {"measurement": "T/C", "setting": "[5]", "value": "87 % of control"}, {"measurement": "T/C", "setting": "[6]", "value": "88 % of control"}, {"measurement": "T/C", "setting": "dose: 400.0 mg/kg/injection, schedule: Q01DX009 (ip), vehicle: saline with Tween-80", "value": "97 % of control"}, {"measurement": "T/C", "setting": "dose: 400.0 mg/kg/injection, schedule: Q01DX009 (ip), vehicle: saline", "value": "97 % of control"}]}
{"smiles": "CCOC(=O)[C](=[N+]=[N-])[Hg][C](=[N+]=[N-])C(=O)OCC", "values": [{"measurement": "T/C", "setting": "dose: 1.56 mg/kg/injection, schedule: Q04DX003 (ip), vehicle: saline", "value": "100 % of control"}, {"measurement": "T/C", "setting": "dose: 3.12 mg/kg/injection, schedule: Q04DX003 (ip), vehicle: saline", "value": "101 % of control"}, {"measurement": "T/C", "setting": "dose: 6.25 mg/kg/injection, schedule: Q04DX003 (ip), vehicle: saline", "value": "100 % of control"}]}
{"smiles": "N#CC1=C(O)/C(=C\\c2ccc(Cl)cc2)N=C1N", "values": [{"measurement": "T/C", "setting": "[7]", "value": "88 % of control"}, {"measurement": "T/C", "setting": "dose: 100.0 mg/kg/injection, schedule: Q01DX005 (ip), vehicle: saline with Tween-80", "value": "91 % of control"}, {"measurement": "T/C", "setting": "dose: 200.0 mg/kg/injection, schedule: Q01DX005 (ip), vehicle: saline with Tween-80", "value": "94 % of control"}]}
{"smiles": "CCOC(=O)c1cc2c(nc1C)-c1ccccc1OC2Nc1ccccc1", "note": "(configuration not stated)", "values": [{"measurement": "T/C", "setting": "dose: 3.12 mg/kg/injection, schedule: Q01DX005 (ip), vehicle: saline with Tween-80", "value": "98 % of control"}, {"measurement": "T/C", "setting": "dose: 6.25 mg/kg/injection, schedule: Q01DX005 (ip), vehicle: saline with Tween-80", "value": "96 % of control"}, {"measurement": "T/C", "setting": "dose: 12.5 mg/kg/injection, schedule: Q01DX005 (ip), vehicle: saline with Tween-80", "value": "96 % of control"}, {"measurement": "T/C", "setting": "[7]", "value": "88 % of control"}, {"measurement": "T/C", "setting": "dose: 100.0 mg/kg/injection, schedule: Q01DX001 (ip), vehicle: saline with Tween-80", "value": "89 % of control"}]}
{"smiles": "c1ccc2c(NCC3CCN(c4c5ccccc5nc5ccccc45)CC3)c3ccccc3nc2c1", "values": [{"measurement": "T/C", "setting": "dose: 25.0 mg/kg/injection, schedule: Q04DX002 (ip), vehicle: saline with Tween-80", "value": "118 % of control"}, {"measurement": "T/C", "setting": "dose: 50.0 mg/kg/injection, schedule: Q04DX002 (ip), vehicle: saline with Tween-80", "value": "117 % of control"}, {"measurement": "T/C", "setting": "[8]", "value": "111 % of control"}]}
{"smiles": "Cc1ccc(N2CCCCN(c3ccc(C)cc3)/C(c3ccccc3)=C\\2c2ccccc2)cc1", "values": [{"measurement": "T/C", "setting": "[9]", "value": "91 % of control"}, {"measurement": "T/C", "setting": "[10]", "value": "91 % of control"}, {"measurement": "T/C", "setting": "[11]", "value": "101 % of control and 91 % of control"}]}
{"smiles": "c1ccc2c(c1)C1OC2c2cnccc21", "note": "(configuration not stated)", "values": [{"measurement": "T/C", "setting": "[8]", "value": "95 % of control"}, {"measurement": "T/C", "setting": "dose: 200.0 mg/kg/injection, schedule: Q04DX002 (ip), vehicle: saline with Tween-80", "value": "96 % of control"}, {"measurement": "T/C", "setting": "dose: 400.0 mg/kg/injection, schedule: Q04DX002 (ip), vehicle: saline with Tween-80", "value": "93 % of control"}]}
{"smiles": "Cc1cc(Nc2nnc(-c3cccnc3Oc3ccccc3)s2)ccc1Br", "values": [{"measurement": "T/C", "setting": "dose: 12.5 mg/kg/injection, schedule: Q01DX009 (ip), vehicle: saline with Tween-80", "value": "88 % of control"}, {"measurement": "T/C", "setting": "[12]", "value": "92 % of control"}, {"measurement": "T/C", "setting": "[1]", "value": "105 % of control and 91 % of control"}, {"measurement": "T/C", "setting": "[3]", "value": "94 % of control"}, {"measurement": "T/C", "setting": "[5]", "value": "103 % of control"}]}
{"smiles": "CN(C)c1ccc(/C=C/c2ccnnc2)cc1", "values": [{"measurement": "T/C", "setting": "[2]", "value": "99 % of control"}, {"measurement": "T/C", "setting": "[4]", "value": "104 % of control"}, {"measurement": "T/C", "setting": "[6]", "value": "100 % of control"}]}
{"smiles": "CN1CCC2(CCNCC2)C1=O", "values": [{"measurement": "T/C", "setting": "[2]", "value": "86 % of control"}, {"measurement": "T/C", "setting": "[4]", "value": "100 % of control"}, {"measurement": "T/C", "setting": "[6]", "value": "95 % of control"}]}
{"smiles": "C[CH2][Sn]1([CH2]C)[O]C(=O)[O][Sn]([CH2]C)([CH2]C)[O]1", "values": [{"measurement": "T/C", "setting": "dose: 3.12 mg/kg/injection, schedule: Q01DX005 (ip), vehicle: Klucel (hydroxypropylcellulose) (HPC)", "value": "122 % of control"}, {"measurement": "T/C", "setting": "dose: 6.25 mg/kg/injection, schedule: Q01DX005 (ip), vehicle: Klucel (hydroxypropylcellulose) (HPC)", "value": "119 % of control"}]}
{"smiles": "Cc1cc2c3ccc(C)[n+](C)c3ccc2n1C", "values": [{"measurement": "T/C", "setting": "dose: 1.25 mg/kg/injection, schedule: Q01DX010 (ip), vehicle: saline", "value": "100 % of control"}, {"measurement": "T/C", "setting": "dose: 2.5 mg/kg/injection, schedule: Q01DX010 (ip), vehicle: saline", "value": "105 % of control"}]}
{"smiles": "FC(F)(F)c1ccccc1NC(=S)SCc1ccco1", "values": [{"measurement": "T/C", "setting": "dose: 50.0 mg/kg/injection, schedule: Q01DX009 (ip), vehicle: suspension in saline", "value": "93 % of control"}, {"measurement": "T/C", "setting": "dose: 100.0 mg/kg/injection, schedule: Q01DX009 (ip), vehicle: suspension in saline", "value": "93 % of control"}]}
{"smiles": "CCN(CC)CCOc1ccc(C2N3Cc4ccccc4CN2c2ccccc23)cc1", "values": [{"measurement": "T/C", "setting": "[9]", "value": "99 % of control"}, {"measurement": "T/C", "setting": "[10]", "value": "108 % of control"}, {"measurement": "T/C", "setting": "[11]", "value": "99 % of control"}]}
{"smiles": "Cc1ccnc2cc(N(C)C)ccc12", "values": [{"measurement": "T/C", "setting": "dose: 7.5 mg/kg/injection, schedule: Q01DX005 (ip), vehicle: Klucel (hydroxypropylcellulose) (HPC)", "value": "101 % of control"}, {"measurement": "T/C", "setting": "dose: 15.0 mg/kg/injection, schedule: Q01DX005 (ip), vehicle: Klucel (hydroxypropylcellulose) (HPC)", "value": "98 % of control"}, {"measurement": "T/C", "setting": "dose: 30.0 mg/kg/injection, schedule: Q01DX005 (ip), vehicle: Klucel (hydroxypropylcellulose) (HPC)", "value": "99 % of control"}, {"measurement": "T/C", "setting": "dose: 60.0 mg/kg/injection, schedule: Q01DX005 (ip), vehicle: Klucel (hydroxypropylcellulose) (HPC)", "value": "92 % of control"}]}
{"smiles": "CCNC(=O)OCc1c(COC(=O)NCC)c2n(c1C)CCc1ccccc1-2", "values": [{"measurement": "T/C", "setting": "dose: 12.5 mg/kg/injection, schedule: Q01DX009 (ip), vehicle: distilled water + Tween-80", "value": "157 % of control and 185 % of control"}, {"measurement": "T/C", "setting": "dose: 25.0 mg/kg/injection, schedule: Q01DX009 (ip), vehicle: distilled water + Tween-80", "value": "166 % of control"}]}
{"smiles": "Nc1ccccc1N", "values": [{"measurement": "T/C", "setting": "[12]", "value": "95 % of control"}, {"measurement": "T/C", "setting": "[3]", "value": "120 % of control"}, {"measurement": "T/C", "setting": "dose: 100.0 mg/kg/injection, schedule: Q04DX003 (ip), vehicle: saline sonified", "value": "100 % of control"}, {"measurement": "T/C", "setting": "[5]", "value": "185 % of control"}]}
{"smiles": "COc1ccc(C(=O)CCc2c[nH]c3ccccc23)c(O)c1", "values": [{"measurement": "T/C", "setting": "dose: 60.0 mg/kg/injection, schedule: Q01DX005 (ip), vehicle: saline with Tween-80", "value": "101 % of control"}, {"measurement": "T/C", "setting": "dose: 120.0 mg/kg/injection, schedule: Q01DX005 (ip), vehicle: saline with Tween-80", "value": "112 % of control"}, {"measurement": "T/C", "setting": "dose: 240.0 mg/kg/injection, schedule: Q01DX005 (ip), vehicle: saline with Tween-80", "value": "92 % of control"}]}
{"smiles": "CCC(=O)c1ccc(OS(=O)(=O)O)cc1", "values": [{"measurement": "T/C", "setting": "dose: 50.0 mg/kg/injection, schedule: Q01DX009 (ip), vehicle: Klucel (hydroxypropylcellulose) (HPC)", "value": "96 % of control"}, {"measurement": "T/C", "setting": "dose: 100.0 mg/kg/injection, schedule: Q01DX009 (ip), vehicle: Klucel (hydroxypropylcellulose) (HPC)", "value": "103 % of control"}, {"measurement": "T/C", "setting": "dose: 200.0 mg/kg/injection, schedule: Q01DX009 (ip), vehicle: Klucel (hydroxypropylcellulose) (HPC)", "value": "99 % of control"}]}
{"smiles": "CN(C)CC1CCC2=C(C1=O)C(c1ccc(Cl)c(Cl)c1)C1=C(CCC(CN(C)C)C1=O)O2", "note": "(configuration not stated)", "values": [{"measurement": "T/C", "setting": "dose: 60.0 mg/kg/injection, schedule: Q01DX005 (ip), vehicle: suspension in saline", "value": "100 % of control"}, {"measurement": "T/C", "setting": "dose: 120.0 mg/kg/injection, schedule: Q01DX005 (ip), vehicle: suspension in saline", "value": "106 % of control"}, {"measurement": "T/C", "setting": "dose: 240.0 mg/kg/injection, schedule: Q01DX005 (ip), vehicle: suspension in saline", "value": "99 % of control"}]}
